Data: ChEMBL document CHEMBL2146451, “Antidiabetic activity of some pentacyclic acid triterpenoids, role of PTP-1B: in vitro, in silico, and in vivo approaches” (Eur J Med Chem, 2011)

How the values were obtained:
Rattus norvegicus [1] = assay: Antidiabetic activity in STZ-nicotinamide diabetic Wistar rat T2DM model assessed as decrease in blood glucose level at 5 mg/kg, po after 7 hrs by enzymatic glucose oxidase method relative to control; type: functional; design: scale not given: the % may be the effect or the level left
Rattus norvegicus [2] = assay: Antidiabetic activity in STZ-nicotinamide diabetic Wistar rat T2DM model assessed as decrease in blood glucose level at 5 mg/kg, po after 5 hrs by enzymatic glucose oxidase method relative to control; type: functional; design: scale not given: the % may be the effect or the level left
Rattus norvegicus [3] = assay: Antidiabetic activity in STZ-nicotinamide diabetic Wistar rat T2DM model assessed as decrease in blood glucose level at 5 mg/kg, po after 3 hrs by enzymatic glucose oxidase method relative to control; type: functional; design: scale not given: the % may be the effect or the level left
Rattus norvegicus [4] = assay: Antidiabetic activity in STZ-nicotinamide diabetic Wistar rat T2DM model assessed as decrease in blood glucose level at 5 mg/kg, po after 1 hr by enzymatic glucose oxidase method relative to control; type: functional; design: scale not given: the % may be the effect or the level left
Rattus norvegicus [5] = assay: Antidiabetic activity in STZ-nicotinamide diabetic Wistar rat T2DM model assessed as decrease in blood glucose level at 50 mg/kg, po after 1 hr by enzymatic glucose oxidase method relative to control; type: functional; design: scale not given: the % may be the effect or the level left
Rattus norvegicus [6] = assay: Antidiabetic activity in STZ-nicotinamide diabetic Wistar rat T2DM model assessed as decrease in blood glucose level at 50 mg/kg, po after 5 hrs by enzymatic glucose oxidase method relative to control; type: functional; design: scale not given: the % may be the effect or the level left
[7] = biological target: T1, Low molecular weight phosphotyrosine protein phosphatase (Homo sapiens, UniProt P24666); assay: Inhibition of human recombinant LMW-PTP1 expressed in Escherichia coli TB1 using p-nitrophenyl phosphate as substrate after 1 hr
T1 sequence (P24666 whole entry): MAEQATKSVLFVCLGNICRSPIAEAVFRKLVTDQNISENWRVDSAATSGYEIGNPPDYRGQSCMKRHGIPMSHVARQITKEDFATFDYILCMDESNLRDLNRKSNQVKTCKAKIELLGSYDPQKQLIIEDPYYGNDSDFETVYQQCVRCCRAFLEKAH

Rattus norvegicus [8] = assay: Antidiabetic activity in STZ-nicotinamide diabetic Wistar rat T2DM model assessed as decrease in blood glucose level at 50 mg/kg, po after 7 hrs by enzymatic glucose oxidase method relative to control; type: functional; design: scale not given: the % may be the effect or the level left
[9] = biological target: T1, Low molecular weight phosphotyrosine protein phosphatase; assay: Inhibition of human recombinant LMW-PTP2 expressed in Escherichia coli TB1 using p-nitrophenyl phosphate as substrate after 1 hr
[10] = biological target: Receptor-type tyrosine-protein phosphatase F (Homo sapiens, UniProt P10586); assay: Inhibition of human recombinant LAR expressed in Escherichia coli TB1 using p-nitrophenyl phosphate as substrate after 1 hr
Sequence of Receptor-type tyrosine-protein phosphatase F (P10586 whole entry): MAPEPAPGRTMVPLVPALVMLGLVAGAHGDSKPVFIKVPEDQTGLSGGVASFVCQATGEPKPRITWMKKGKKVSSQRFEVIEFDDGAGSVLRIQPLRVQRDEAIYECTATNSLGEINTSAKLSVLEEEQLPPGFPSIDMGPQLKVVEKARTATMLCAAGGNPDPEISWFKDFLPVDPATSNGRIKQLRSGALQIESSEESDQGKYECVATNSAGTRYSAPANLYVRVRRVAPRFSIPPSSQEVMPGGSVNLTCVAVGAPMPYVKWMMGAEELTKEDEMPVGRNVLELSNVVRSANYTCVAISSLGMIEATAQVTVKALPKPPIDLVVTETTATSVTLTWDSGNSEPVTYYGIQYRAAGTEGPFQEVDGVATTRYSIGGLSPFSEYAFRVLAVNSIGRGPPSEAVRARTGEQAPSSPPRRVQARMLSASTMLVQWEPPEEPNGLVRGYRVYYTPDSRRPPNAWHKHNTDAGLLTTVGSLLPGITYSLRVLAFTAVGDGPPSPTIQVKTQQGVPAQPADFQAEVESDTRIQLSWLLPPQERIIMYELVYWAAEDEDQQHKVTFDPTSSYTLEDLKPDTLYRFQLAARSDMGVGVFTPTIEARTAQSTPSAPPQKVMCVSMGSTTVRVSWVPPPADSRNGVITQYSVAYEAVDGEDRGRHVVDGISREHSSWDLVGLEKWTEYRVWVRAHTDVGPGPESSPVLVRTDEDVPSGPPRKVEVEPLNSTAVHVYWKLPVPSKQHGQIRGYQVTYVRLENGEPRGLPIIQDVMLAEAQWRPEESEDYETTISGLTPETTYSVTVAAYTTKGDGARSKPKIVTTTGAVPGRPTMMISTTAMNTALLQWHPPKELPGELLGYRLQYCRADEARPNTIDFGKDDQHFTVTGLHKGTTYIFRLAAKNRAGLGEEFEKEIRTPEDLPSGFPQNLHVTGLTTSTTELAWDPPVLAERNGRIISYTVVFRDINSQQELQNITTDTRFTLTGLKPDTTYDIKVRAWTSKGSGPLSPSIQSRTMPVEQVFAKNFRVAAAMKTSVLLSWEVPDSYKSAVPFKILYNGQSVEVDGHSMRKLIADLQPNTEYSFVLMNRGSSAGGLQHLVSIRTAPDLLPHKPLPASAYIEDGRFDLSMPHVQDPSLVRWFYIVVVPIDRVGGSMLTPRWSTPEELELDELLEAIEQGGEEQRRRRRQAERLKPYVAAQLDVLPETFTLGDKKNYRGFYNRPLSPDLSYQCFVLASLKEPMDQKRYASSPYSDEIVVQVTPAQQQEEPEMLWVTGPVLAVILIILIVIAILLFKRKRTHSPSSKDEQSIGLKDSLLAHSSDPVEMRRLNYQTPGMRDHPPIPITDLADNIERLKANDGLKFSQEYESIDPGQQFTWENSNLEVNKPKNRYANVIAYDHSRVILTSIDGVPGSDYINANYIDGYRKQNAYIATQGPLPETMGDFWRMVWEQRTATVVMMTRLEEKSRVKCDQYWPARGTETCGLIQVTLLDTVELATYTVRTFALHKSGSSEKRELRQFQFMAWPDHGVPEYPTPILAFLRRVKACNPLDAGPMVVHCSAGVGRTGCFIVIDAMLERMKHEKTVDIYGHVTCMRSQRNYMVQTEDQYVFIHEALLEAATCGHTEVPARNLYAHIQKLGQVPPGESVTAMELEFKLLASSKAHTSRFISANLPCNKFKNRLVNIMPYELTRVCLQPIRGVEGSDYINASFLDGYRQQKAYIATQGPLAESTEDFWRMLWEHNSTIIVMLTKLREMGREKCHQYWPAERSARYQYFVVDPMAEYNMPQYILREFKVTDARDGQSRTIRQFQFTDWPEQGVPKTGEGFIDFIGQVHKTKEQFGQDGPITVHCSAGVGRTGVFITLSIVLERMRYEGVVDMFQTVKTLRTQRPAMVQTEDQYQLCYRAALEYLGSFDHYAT

Rattus norvegicus [11] = assay: Antidiabetic activity in STZ-nicotinamide diabetic Wistar rat T2DM model assessed as decrease in blood glucose level at 50 mg/kg, po after 3 hrs by enzymatic glucose oxidase method relative to control; type: functional; design: scale not given: the % may be the effect or the level left
[12] = biological target: T2, Tyrosine-protein phosphatase non-receptor type 1 (Homo sapiens, UniProt P18031)
T2 sequence (P18031 whole entry): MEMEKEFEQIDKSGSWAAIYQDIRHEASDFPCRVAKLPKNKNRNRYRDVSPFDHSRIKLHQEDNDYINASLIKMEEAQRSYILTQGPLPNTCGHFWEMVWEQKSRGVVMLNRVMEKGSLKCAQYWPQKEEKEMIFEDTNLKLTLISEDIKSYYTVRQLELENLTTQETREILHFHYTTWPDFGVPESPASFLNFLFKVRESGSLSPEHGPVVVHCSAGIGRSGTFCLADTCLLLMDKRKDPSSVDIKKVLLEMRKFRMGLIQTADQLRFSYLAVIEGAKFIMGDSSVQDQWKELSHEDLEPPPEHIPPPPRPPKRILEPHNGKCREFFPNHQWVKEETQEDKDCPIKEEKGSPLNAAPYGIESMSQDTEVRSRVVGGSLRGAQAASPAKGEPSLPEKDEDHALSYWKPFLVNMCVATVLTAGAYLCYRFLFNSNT
Description: Inhibition of human recombinant PTP-1B expressed in Escherichia coli TB1 using p-nitrophenyl phosphate as substrate after 1 hr

[13] = biological target: T2, Tyrosine-protein phosphatase non-receptor type 1; assay: Mixed type inhibition of human recombinant PTP-1B expressed in Escherichia coli TB1 using p-nitrophenyl phosphate as substrate
[14] = Inhibition of yeast LMW-PTP1 expressed in Escherichia coli TB1 using p-nitrophenyl phosphate as substrate after 1 hr; design: species or system Saccharomyces cerevisiae
Mus musculus = species: Mus musculus; assay: Antidiabetic activity in normal Swiss mouse assessed as reduction of blood glucose level by glucose tolerance test relative to control; type: functional; design: scale not given: the % may be the effect or the level left

| Compound | Activity (Rattus norvegicus [1]) [%] | Activity (Rattus norvegicus [2]) [%] | Activity (Rattus norvegicus [3]) [%] | Activity (Rattus norvegicus [4]) [%] | Activity (Rattus norvegicus [5]) [%] | Activity (Rattus norvegicus [6]) [%] | IC50 [7] [µM] | Activity (Rattus norvegicus [8]) [%] | IC50 [9] [µM] | IC50 [10] [µM] | Activity (Rattus norvegicus [11]) [%] | IC50 [12] [µM] | Ki [13] [µM] | IC50 [14] [µM] | Activity (Mus musculus) [%] |
| --- | --- | --- | --- | --- | --- | --- | --- | --- | --- | --- | --- | --- | --- | --- | --- |
| COc1ccc(Cl)cc1C(=O)NCCc1ccc(S(=O)(=O)NC(=O)NC2CCCCC2)cc1 [GLYBURIDE] | 43.6 | 37.5 | 36.3 | 20.4 | – | – | – | – | – | – | – | – | – | – | – |
| CC1(C)C=C2[C@H]3CC[C@@H]4[C@@]5(C)CC[C@H](O)C(C)(C)[C@@H]5CC[C@@]4(C)[C@]3(C)CC[C@@]2(C(=O)O)CC1 [MOROLIC ACID] | – | – | – | – | 1.54 | 8.77 | 13.4 | 39.2 | 30.6 | 35.9 | 15.2 | – | – | – | – |
| CC1(C)C=C2[C@H]3CC[C@@H]4[C@@]5(C)CCC(=O)C(C)(C)[C@@H]5CC[C@@]4(C)[C@]3(C)CC[C@@]2(C(=O)O)CC1 [MORONIC ACID] | – | – | – | – | 17.3 | 15.3 | 20.6 | 29.2 | 27.4 | 45.6 | 26.3 | 13.2 | 8 | 51.2 | – |
| CC1(C)CC[C@]2(C(=O)O)CC[C@]3(C)C(=CC[C@@H]4[C@@]5(C)CC[C@H](O)C(C)(C)[C@@H]5CC[C@]43C)[C@@H]2C1 [OLEANOLIC_ACID] | – | – | – | – | 26.9 | 23.2 | 21.2 | 21.9 | 22.9 | 11.8 | 14.1 | – | – | 44.8 | 22 |
| C[C@H]1[C@H](C)CC[C@]2(C(=O)O)CC[C@]3(C)C(=CC[C@@H]4[C@@]5(C)CC[C@H](O)C(C)(C)[C@@H]5CC[C@]43C)[C@H]12 [URSOLIC ACID] | – | – | – | – | 13.5 | 25.7 | 7.2 | 38 | 11.1 | 3.8 | 24.4 | – | – | 20 | – |
